This note sets out measurements from publication PMC5104769, “Concentration-Dependent Dual Mode of Zn Action at Serotonin 5-HT1A Receptors: In Vitro and In Vivo Studies” (Molecular neurobiology, 2015).

The test system of assay [1] is Sprague Dawley rats. Briefly: Lower lip retraction (LLR) in rats. The conditions noted are these: for induction of LLR (in words): given alone: 8-OH-DPAT 1 mg/kg, Zn 2 and 5 mg/kg, WAY-100635 0.1 mg/kg. The class given is in vivo, rat. The procedure:
The experiments were performed on male Albino Swiss mice (23-25 g) and Sprague Dawley rats (200-250 g) from Charles River, Germany as well as […]-flx-YFP mice from Jackson Labs, Bangor ME and the Hen lab, respectively. The animals were kept under standard laboratory conditions with respect to lighting (light phase 7:00-19:00) and temperature (19-21 °C). Food and water were freely available. Each experimental group consisted of eight to ten animals. All of the animals were experimentally naive and were used only once in each test. The experiments were performed during the light period (9:00-14:00 h). All of the procedures were conducted according to the guidelines of the National Institutes of Health Animal Care and Use Committee and were approved by the Ethics Committees of the Institute of Pharmacology, Polish Academy of Sciences in Krakow and the Animal Care Committee, University of Ottawa. […] Controls were treated with the appropriate diluent, which was indicated as VEH on the graphs and in the tables. LLR was assessed according to the method described by Berendsen et al., [20]. The rats were individually placed in cages (30×25×25 cm) and were scored three times, 15, 30 and 45 min after the administration of Zn as follows: 0=lower incisors not visible, 0.5=partly visible and 1=completely visible. Zn was administered at doses of 2 and 5 mg Zn/kg (given as Zn hydroaspartate, Farmapol, Poland). The maximum total score was 3/rat. In addition, the effects of Zn and WAY-100635 (0.1 mg/kg; […] Sigma) were tested.

The next assay can be described thus: Body temperature in rats. The following applies: 8-OH-DPAT 5 mg/kg, vs saline group. The format is in vivo, rat. The procedure:
The experiments were performed on male Albino Swiss mice (23–25 g) and Sprague Dawley rats (200–250 g) from Charles River, Germany as well as TPH2-Cre-ER^T2 x flx-5-HT1A-flx-YFP mice from Jackson Labs, Bangor ME and the Hen lab, respectively. The animals were kept under standard laboratory conditions with respect to lighting (light phase 7:00–19:00) and temperature (19–21 °C). Food and water were freely available. Each experimental group consisted of eight to ten animals. All of the animals were experimentally naive and were used only once in each test. The experiments were performed during the light period (9:00–14:00 h). All of the procedures were conducted according to the guidelines of the National Institutes of Health Animal Care and Use Committee and were approved by the Ethics Committees of the Institute of Pharmacology, Polish Academy of Sciences in Krakow and the Animal Care Committee, University of Ottawa. […]
The effects of Zn (2, 5, 7.5 and 11.5 mg Zn/kg for rats and 2 and 5 mg/kg for mice, given as a Zn hydroaspartate), 8-OH-DPAT (5 mg/kg) and WAY-100635 (0.1mg/kg) on rectal body temperature were recorded 30 and 60 min after their acute administration. The results were expressed as a change in body temperature with respect to the basal body temperature, which was measured at the beginning of the experiments.

The subject of assay [2] is Sprague Dawley rats. Briefly: Forced swim test (FST) in rats. The class given is in vivo, rat.
Procedure: The test was carried out according to the method described previously [10]. On day one of the experiment, the animals were individually placed in plexiglass cylinders (40 cm in height, 18 cm in diameter), containing 25 cm of water maintained at 24–25 °C for a 15-min habituation period. After the rats were removed from the water, they were again placed in their home cages. On the second day, the rats were again placed in the cylinders, and the total duration of immobility was measured for a 5-min test period. Zn (1 or 2 mg Zn/ kg, given as Zn hydroaspartate) and 8-OH-DPAT (0.1 or 0.3 mg/kg) were administered alone or jointly 30 min before the test. WAY-100635 (0.1 mg/kg) was administered 15 min before the Zn treatment.
The nature of a further assay: Body temperature in mice. The class given is in vivo, mouse. The procedure: The experiments were performed on male Albino Swiss mice (23-25 g) and Sprague Dawley rats (200-250 g) from Charles River, Germany as well as […]-flx-YFP mice from Jackson Labs, Bangor ME and the Hen lab, respectively. The animals were kept under standard laboratory conditions with respect to lighting (light phase 7:00-19:00) and temperature (19-21 °C). Food and water were freely available. Each experimental group consisted of eight to ten animals. All of the animals were experimentally naive and were used only once in each test. The experiments were performed during the light period (9:00-14:00 h). All of the procedures were conducted according to the guidelines of the National Institutes of Health Animal Care and Use Committee and were approved by the Ethics Committees of the Institute of Pharmacology, Polish Academy of Sciences in Krakow and the Animal Care Committee, University of Ottawa. […] Controls were treated with the appropriate diluent, which was indicated as VEH on the graphs and in the tables. […] The results were expressed as a change in body temperature with respect to the basal body temperature, which was measured at the beginning of the experiments.

The subject of assay [3] is Sprague Dawley rats. Nature of the assay: 5-HT behavioural syndrome (flat body posture, forepaw treading) in rats. The class given is in vivo, rat. The conditions noted are these: VEH + 8-OH-DPAT 5 mg/kg. The procedure: The experiments were performed on male Albino Swiss mice (23–25 g) and Sprague Dawley rats (200–250 g) from Charles River, Germany as well as TPH2-Cre-ER^T2 x flx-5-HT1A-flx-YFP mice from Jackson Labs, Bangor ME and the Hen lab, respectively. The animals were kept under standard laboratory conditions with respect to lighting (light phase 7:00–19:00) and temperature (19–21 °C). Food and water were freely available. Each experimental group consisted of eight to ten animals. All of the animals were experimentally naive and were used only once in each test. The experiments were performed during the light period (9:00–14:00 h). All of the procedures were conducted according to the guidelines of the National Institutes of Health Animal Care and Use Committee and were approved by the Ethics Committees of the Institute of Pharmacology, Polish Academy of Sciences in Krakow and the Animal Care Committee, University of Ottawa.
Zn (all doses refer to mg Zn/kg) was given as either Zn hydroaspartate (Farmapol, Poland) or Zn chloride (Sigma-Aldrich) and was dissolved in 0.9 % NaCl and administered intraperitoneally (i.p.). 8-OH-DPAT and WAY-100635 were dissolved in aqua pro-injection and were administered subcutaneously (s.c.). Controls were treated with the appropriate diluent, which was indicated as VEH on the graphs and in the tables.
The experiments were conducted according to previously published procedure, with a modification to the ranked intensity scale. Briefly, the rats were individually placed in cages (30×25×25 cm) 5 min before tested compounds were injected. Forepaw treading (FT) and flat body posture (FBP) were scored using a ranked intensity scale, where 0=absent, 1=equivocal and 2=present. The Zn (2, 5, 7.5 and 11.5 mg Zn/kg, given as a Zn hydroaspartate)-induced behavioural syndrome was scored for each animal 3, 6, 9, 12 and 15 min after the Zn treatment. Each observation session lasted for 45 s. The maximum score, which was summed over 5 observation periods, was 10 for each symptom/rat. The effect of Zn on the behavioural syndrome induced by 8-OH-DPAT (5 mg/kg) was scored using the same scale. Zn was administered 60 min before 8-OH-DPAT, and the animals were scored 3, 6, 9, 12 and 15 min after the 8-OH-DPAT treatment.

Assay [4] concerns the target T1, human 5-HT1AR stably expressed in HEK293 cells (Homo sapiens, UniProt P08908).
T1 construct: The full-length human 5HTR1A complementary DNA (cDNA); membranes prepared from the cells
T1 sequence (P08908 1-422): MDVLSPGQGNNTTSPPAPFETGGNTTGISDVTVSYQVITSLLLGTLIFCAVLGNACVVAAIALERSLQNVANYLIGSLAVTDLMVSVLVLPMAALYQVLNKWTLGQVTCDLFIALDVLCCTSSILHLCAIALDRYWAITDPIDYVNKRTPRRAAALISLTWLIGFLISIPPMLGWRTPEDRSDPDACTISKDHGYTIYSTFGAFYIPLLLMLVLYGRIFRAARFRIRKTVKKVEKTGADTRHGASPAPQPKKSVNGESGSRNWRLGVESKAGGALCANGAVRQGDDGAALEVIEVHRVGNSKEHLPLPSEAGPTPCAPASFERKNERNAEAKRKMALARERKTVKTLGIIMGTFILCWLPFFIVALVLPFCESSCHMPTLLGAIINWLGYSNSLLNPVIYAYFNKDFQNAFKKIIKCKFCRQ
Briefly: Saturation binding of [3H]-8-OH-DPAT in the absence and presence of Zn. The following applies: saturation binding. The procedure: The full-length human 5HTR1A complementary DNA (cDNA), which was cloned into the mammalian expression vector pcDNA3.1(+), was obtained from the Missouri S&T cDNA Resource Center (www.cdna.org). The receptor cDNA was stably transfected into human embryonic kidney cells (HEK293, ATCC) with the use of Lipofectamine 2000 (Invitrogen).
Cell pellets were thawed and homogenized in 20 volumes of 50 mM Tris–HCl buffer (pH 7.7) containing 0.1 mM EDTA and 10 mM MgCl2, using an Ultra Turrax tissue homogenizer. The pellets were then centrifuged twice at 35,000g for 20 min at 4 °C, with incubation for 15 min at 37 °C in between centrifugations. Membranes were aliquoted in tubes. Membrane protein concentrations were determined using the Pierce™ Coomassie (Bradford) Protein Assay Kit, with bovine serum albumin (BSA) as a standard.
The incubation buffer consisted of 50 mM Tris–HCl (pH 7.7), 10 mM MgCl2, 10 mM pargyline and 0.1 % ascorbic acid. Radioligand binding assays were performed by incubating 30 μg of protein of the membrane suspension in 96-well microtitre plates for 60 min at room temperature with shaking, in a total volume of 200 μl. The binding reactions were stopped by filtration through GF/C Unifilter plates using a harvester (PerkinElmer). The plate filters were dried, and 20 μl of Ultima Gold MV (PerkinElmer) was added. Radioactivity was measured using a MicroBeta TriLux counter (PerkinElmer).
All experiments were performed in triplicate, and the results were obtained from at least three independent experiments. The data are expressed as the mean±S.D. (standard deviation). The experimental data were analysed using GraphPad Prism 5.1 for Windows (GraphPad Software, San Diego California USA, www.graphpad.com).

With `CCCN(CCC)C1CCc2cccc(O)c2C1` (stereo not drawn) [8-OH-DPAT, 8-Hydroxy-2-(di-n-propylamino)tetralin, reference compound], in the assay with Sprague Dawley rats [1] (VEH pretreatment + 8-OH-DPAT 1 mg/kg), the “Mean LLR score (B) 8-OH-DPAT 1 mg/kg” value was determined as 2.25±0.46. The “induction of LLR (in words)” value with Sprague Dawley rats [1] is reported as “induced LLR”. The “change in body temperature” value in “Body temperature in rats” is given as “significant decrease in body temperature”; in the assay “Body temperature in mice” (8-OH-DPAT 5 mg/kg, vs saline group) it was “significant decrease in body temperature”. Moreover, the “immobility time in the FST” value in the assay on Sprague Dawley rats [2] (8-OH-DPAT 0.1 mg/kg) is recorded as “not 0.1 mg/kg (p>0.05) decreased the immobility time”; in the assay with Sprague Dawley rats [2] (8-OH-DPAT 0.3 mg/kg), “decreased the immobility time”. Also, the “behavioural score FBP (B) 8-OH-DPAT” value in the assay with Sprague Dawley rats [3] is recorded as 7.83±0.7. Moreover, the “behavioural score FT (B) 8-OH-DPAT” value with Sprague Dawley rats [3] was determined as 7.5±0.6.

For the compound `COc1ccccc1N1CCN(CCN(C(=O)C2CCCCC2)c2ccccn2)CC1` [WAY-100635, N-[2[4-(2-methoxyphenyl)-1-piperazinyl]ethyl]-N-(2-pyridyl)cyclohexanecarboxamide, reference compound], the “Mean LLR score (B) 8-OH-DPAT 1 mg/kg” value in the assay on Sprague Dawley rats [1] (WAY 100635 0.1 mg/kg 45 min before 8-OH-DPAT 1 mg/kg) is given as 0.67±0.76. Also, the “Mean LLR score (A) VEH” value with Sprague Dawley rats [1] (WAY 100635 0.1 mg/kg s.c. alone, max score 3/rat) worked out at 0.0±0.0. Moreover, in the assay on Sprague Dawley rats [1] (Zn 2 and 5 mg/kg or WAY-100635 0.1 mg/kg before 8-OH-DPAT 1 mg/kg), the “effect on LLR induced by 8-OH-DPAT (in words)” value is given as “blocked the LLR induced by 8-OH-DPAT”. The “induction of LLR (in words)” value in the assay on Sprague Dawley rats [1] is on record as “did not evoke LLR”. The “effect on Zn-induced decrease in immobility time” value with Sprague Dawley rats [2] (WAY-100635 0.1 mg/kg 15 min before Zn) is recorded as “antagonized the Zn-induced decrease in the immobility time”. For the same compound, the “behaviour in the FST” value in the assay on Sprague Dawley rats [2] (WAY-100635 0.1 mg/kg given alone) was “did not change the behaviour of the animals”. For the same compound, the “effect of pretreatment on Zn-induced decrease in body temperature” value in “Body temperature in mice” (WAY-100635 0.1 mg/kg s.c. 15 min before Zn) is “abolished the effect induced by Zn”.

Consider `CCCN(CCC)C1CCc2cccc(O)c2C1` (stereo not drawn) [[^3H]-8-OH-DPAT], for which the “Bmax of [3H]8-OH-DPAT” value was 4.5±0.3 pM/mg prot in assay [4] (Zn2+ 0 μM); 5.8±0.7 pM/mg prot in assay [4] (Zn2+ 10 μM); 5.8±0.7 pM/mg prot in assay [4] (Zn2+ 10 μM, listed as [^3H]8-OH-DPAT); 6.2±2.0 pM/mg prot in assay [4] (Zn2+ 100 μM); 4.7±0.7 pM/mg prot in assay [4] (Zn2+ 500 μM); 4.0±0.6 pM/mg prot in assay [4] (Zn2+ 1000 μM).
